# Where a name gives a salt, the structure may show the parent alone. Read-outs that look alike come from different tables or passages of the source.
# How the values were obtained:
# [1] = system: cucumber fusarium wilt; test: Fungicidal (bactericidal) activity in vitro, PDA colony diameter; format: cell-based
# [2] = system: Cercospora arachidicola; test: as above; format: cell-based
# [3] = system: Macrophoma kawatsukai; test: as above; format: cell-based
# [4] = system: Alternaria solani; test: as above; format: cell-based
# [5] = system: Fusarium graminearumt; test: microbe, parasite or virus in culture; format: cell-based; details: for Bactericidal activity (%) Fusarium graminearumt: 50 mg/kg
# [6] = system: potato late blight; test: microbe, parasite or virus in culture; format: cell-based
# [7] = system: Sclerotinia scleotiorum; test: Fungicidal (bactericidal) activity in vitro, PDA colony diameter; format: cell-based
# [8] = system: Botrytis cinerea; test: as above; format: cell-based
# [9] = system: Rhizoctonia solani; test: as above; format: cell-based
# [10] = system: Phytophthora capsici; test: as above; format: cell-based
# [11] = system: Fusarium fujikuroi; test: as above; format: cell-based
# [12] = system: Rhizoctonia cereali; test: as above; format: cell-based
# [13] = system: Bipolaria maydis; test: organism not typed; format: cell-based; details: for Bactericidal activity (%) Bipolaria maydis: 50 mg/kg
# [14] = system: Colletotrichum orbiculare; test: Fungicidal (bactericidal) activity in vitro, PDA colony diameter; format: cell-based
# [15] = system: armyworms; format: in vivo; details: concentration 600 mg/kg
# [16] = system: cotton bollworms; test: whole plant or invertebrate
# Description: Experimental method of cotton bollworms: feed and drug mixing method: measure 3 mL of prepared solution and add it to about 27 g of newly prepared feed, thereby obtaining needed concentration through dilution by 10 times.
# [17] = system: mosquito larvae; test: whole plant or invertebrate
# Description: Experimental method of mosquito larvae: culex pipiens pallens, a normal colony raised indoors. Weigh about 5 mg of the compound for test, put it in a penicillin vial, add 5 mL of acetone (or an appropriate solvent), and shake and dissolve it to obtain a 1000 ppm mother solution. Pipette 0.5 mL of the mother solution, add it to a 100 mL beaker filled with 89.9 mL of water, select 10 mosquito larvae at the beginning of the fourth instar, and pour them to a beaker together with 10 mL of feeding solution. The concentration of the drug solution is 5 ppm. […] Use an aqueous solution containing 0.5 mL of test solvent as a blank.
# [18] = system: corn borers
# [19] = system: tobacco mosaic virus (TMV); test: Anti-TMV in vitro effect (half-leaf soaking); format: cell-based, tobacco mosaic virus (host Nicotiana tabacum L.cv.Xanthi NN)
# [20] = system: tobacco mosaic virus (TMV); test: Anti-TMV in vivo inactivation; parameters: species or system tobacco mosaic virus (host Nicotiana tabacum L.cv.Xanthi NN)
# [21] = system: tobacco mosaic virus (TMV); test: Anti-TMV in vivo therapeutic effect; parameters: species or system tobacco mosaic virus (host Nicotiana tabacum L.cv.Xanthi NN)
# [22] = system: tobacco mosaic virus (TMV); test: Anti-TMV in vivo protective effect; parameters: species or system tobacco mosaic virus (host Nicotiana tabacum L.cv.Xanthi NN)
smiles,measurement,setting,value
"CCOC(=O)[C@@H]1Cc2c([nH]c3ccccc23)[C@H](c2cccnc2)N1 [Ib-11, (1S, 3S)-1-(pyridine-3)-2,3,4,9-tetrahydropyridino [3,4-b] indol-3-ethyl formate]",Bactericidal activity (%) Cucumber fusarium wilt,[1],23.8%
same,Bactericidal activity (%) Cercospora arachidicola,[2],42.9%
same,Bactericidal activity (%) Macrophoma kawatsukai,[3],35.3%
same,Bactericidal activity (%) Alternaria solani,[4],55.6%
same,Bactericidal activity (%) Fusarium graminearumt,[5],28.6%
same,Bactericidal activity (%) potato late blight,[6],35.0%
same,Bactericidal activity (%) Sclerotinia scleotiorum,[7],76.0%
same,Bactericidal activity (%) Botrytis cinerea,[8],40.9%
same,Bactericidal activity (%) Rhizoctonia solani,[9],17.9%
same,Bactericidal activity (%) Phytophthora capsici,[10],36.4%
same,Bactericidal activity (%) Fusarium fujikuroi,[11],28.6%
same,Bactericidal activity (%) Rhizoctonia cereali,[12],65.6%
same,Bactericidal activity (%) Bipolaria maydis,[13],15.8%
same,Bactericidal activity (%) Colletotrichum orbiculare,[14],42.9%
same,Armyworm Mortality (%),[15],5%
same,Cotton bollworm Mortality (%),[16]; in vivo,20%
same,Mosquito larvae Mortality (%),[17]; in vivo,15%
same,Corn borer Mortality (%),[18]; in vivo,5%
"CCOC(=O)C1Cc2c([nH]c3ccccc23)C(C)=N1 (stereo not drawn) [Ib-14, 1-methyl-4,9-dihydro-pyridino [3,4-b] indol-3-ethyl formate]",Relative inhibition rate (%) In vitro activity,[19]; treatment dose 100 μg/mL,11.1%
same,Relative inhibition rate (%) In vitro activity,[19]; treatment dose 500 μg/mL,42.6%
same,Relative inhibition rate (%) In vivo inactivation,[20]; treatment dose 100 μg/mL,0%
same,Relative inhibition rate (%) In vivo inactivation,[20]; treatment dose 500 μg/mL,35.7%
same,Relative inhibition rate (%) In vivo therapy,[21]; treatment dose 100 μg/mL,15.9%
same,Relative inhibition rate (%) In vivo therapy,[21]; treatment dose 500 μg/mL,45.8%
same,Relative inhibition rate (%) In vivo protection,[22]; treatment dose 100 μg/mL,21.4%
same,Relative inhibition rate (%) In vivo protection,[22]; treatment dose 500 μg/mL,47%
same,Bactericidal activity (%) Cucumber fusarium wilt,[1]; 50 mg/kg,23.1%
same,Bactericidal activity (%) Cercospora arachidicola,[2]; 50 mg/kg,69.2%
same,Bactericidal activity (%) Macrophoma kawatsukai,[3]; 50 mg/kg,33.3%
same,Bactericidal activity (%) Alternaria solani,[4]; 50 mg/kg,42.1%
same,Bactericidal activity (%) Fusarium graminearumt,[5],42.9%
same,Bactericidal activity (%) potato late blight,[6]; 50 mg/kg,36.4%
same,Bactericidal activity (%) Sclerotinia scleotiorum,[7]; 50 mg/kg,29.4%
same,Bactericidal activity (%) Botrytis cinerea,[8]; 50 mg/kg,36.4%
same,Bactericidal activity (%) Rhizoctonia solani,[9]; 50 mg/kg,59.2%
same,Bactericidal activity (%) Phytophthora capsici,[10]; 50 mg/kg,15.6%
same,Bactericidal activity (%) Fusarium fujikuroi,[11]; 50 mg/kg,28.6%
same,Bactericidal activity (%) Rhizoctonia cereali,[12]; 50 mg/kg,65.8%
same,Bactericidal activity (%) Bipolaria maydis,[13],36.4%
same,Bactericidal activity (%) Colletotrichum orbiculare,[14]; 50 mg/kg,42.9%
same,Armyworm Mortality (%),[15],10%
same,Cotton bollworm Mortality (%),[16]; concentration 600 mg/kg,30%
same,Mosquito larvae Mortality (%),"[17]; concentration 10 mg/kg, 24 h",30%
same,Corn borer Mortality (%),[18]; concentration 600 mg/kg,10%
"CNCC(=O)N[C@@H](CO)C(=O)N[C@H]1[C@H](O)[C@@H](O)[C@H](n2ccc(N)nc2=O)O[C@@H]1C(N)=O [Ningnanmycin, reference compound]",inhibition at 100 µg/mL,"[19]; Tobacco mosaic virus, treatment dose 100 μg/mL, read-out: Relative inhibition rate (%) In vitro activity",26.8%
same,inhibition at 500 µg/mL,"[19]; Tobacco mosaic virus, treatment dose 500 μg/mL, read-out: Relative inhibition rate (%) In vitro activity",73.3%
same,inhibition at 100 µg/mL,"[20]; Tobacco mosaic virus, treatment dose 100 μg/mL, read-out: Relative inhibition rate (%) In vivo inactivation",38.4%
same,inhibition at 500 µg/mL,"[20]; Tobacco mosaic virus, treatment dose 500 μg/mL, read-out: Relative inhibition rate (%) In vivo inactivation",68%
same,inhibition at 100 µg/mL,"[21]; Tobacco mosaic virus, treatment dose 100 μg/mL, read-out: Relative inhibition rate (%) In vivo therapy",20%
same,inhibition at 500 µg/mL,"[21]; Tobacco mosaic virus, treatment dose 500 μg/mL, read-out: Relative inhibition rate (%) In vivo therapy",54.2%
same,inhibition at 100 µg/mL,"[22]; Tobacco mosaic virus, treatment dose 100 μg/mL, read-out: Relative inhibition rate (%) In vivo protection",23.1%
same,inhibition at 500 µg/mL,"[22]; Tobacco mosaic virus, treatment dose 500 μg/mL, read-out: Relative inhibition rate (%) In vivo protection",65.4%
N#Cc1c(Cl)c(Cl)c(Cl)c(C#N)c1Cl [Chlorothalonil],inhibition of growth at 50 mg/kg,"[1]; Fusarium, 96 h, 50 mg/kg",100%
same,inhibition of growth at 50 mg/kg,"[2]; Mycosphaerella arachidis, 96 h, 50 mg/kg",73.3%
same,inhibition at 50 mg/kg,[3]; 50 mg/kg,100%
same,inhibition of growth at 50 mg/kg,"[4]; Alternaria solani, 96 h, 50 mg/kg",73.3%
same,inhibition of growth at 50 mg/kg,"[5]; Fusarium, 96 h, read-out: Bactericidal activity (%) Fusarium graminearumt",< 50%
same,inhibition of growth at 50 mg/kg,"[6]; Phytophthora infestans, 96 h, read-out: Bactericidal activity (%) potato late blight",86.4%
same,inhibition of growth at 50 mg/kg,"[7]; Sclerotinia, 96 h, 50 mg/kg",< 50%
same,inhibition of growth at 50 mg/kg,"[8]; Botrytis cinerea, 96 h, 50 mg/kg",100%
same,inhibition of growth at 50 mg/kg,"[9]; Rhizoctonia solani, 96 h, 50 mg/kg",100%
same,inhibition of growth at 50 mg/kg,"[10]; Phytophthora capsici, 96 h, 50 mg/kg",100%
same,inhibition of growth at 50 mg/kg,"[11]; Fusarium fujikuroi, 96 h, 50 mg/kg",100%
same,inhibition of growth at 50 mg/kg,"[12]; Rhizoctonia, 96 h, 50 mg/kg",100%
same,inhibition at 50 mg/kg,[13]; read-out: Bactericidal activity (%) Bipolaria maydis,91.3%
same,inhibition of growth at 50 mg/kg,"[14]; Colletotrichum orbiculare, 96 h, 50 mg/kg",91.3%

# From patent US10208033B2, “β-carboline, dihydro-β-carboline and tetrahydro-β-carboline alkaloid derivatives and preparation methods same and use in aspects of preventing and treating plant viruses, fungicides and insecticides” (NANKAI UNIVERSITY, priority 2013, dated 2019)
